Columns and labels:
Assay type in all cases: cell-based
ΔERGIC-53 HCT116 cells = assay: EPO secretion level (ELISA) from ERGIC-53 KO HCT116 cells
Source text: (§1) The guide RNAs (gRNAs) flanking the target enhancer regions for ERGIC-53 and MCFD2 were designed using ToolGen’s dRGEN synthesis service (Seoul, South Korea). The target DNA sequences of the gRNAs used in the present study were as follows: for MCFD2 deletion, […], and for ERGIC-53 deletion, […]. The gRNA expression plasmids (pRGEN-U6-sgRNA) were purchased from ToolGen. To generate the KO cells of MCFD2 or ERGIC-53, individual gRNA plasmids and a plasmid-expressing Cas9-green fluorescent protein (GFP) (Addgene, catalog #44719) were transiently transfected into HCT116 cells, which are diploid cells suitable for genome editing using the CRISPR/Cas9 method, in a six-well plate using polyethylenimine “Max” (Polysciences Inc., Warrington, PA) and a Cas9:gRNA molar ratio of 1:5 as described previously. At 48 h post transfection, cells with high GFP expression were identified using fluorescence-activated cell sorting with the BD FACSAria II cell sorter (BD Biosciences, San Jose, CA). For knocking out ERGL in the wild-type and ERGIC-53-KO cells, the Guide-it CRISPR/Cas9 System (green/red) (Takara Bio Inc., Kusatsu, Japan) was used for the cloning and expression of target single gRNAs, whose target ERGL DNA sequences were […] and […]. The two constructed pGuide-it Vectors (green and red) were transiently transfected into HCT116 cells. At 48 h post transfection, cells with high ZsGreen1 and tdTomato expression were identified using fluorescence-activated cell sorting. Sorted cells were plated into individual wells of a 96-well plate and then re-plated as single cells in 6 cm dishes. The deletions in the clones were confirmed by polymerase chain reaction and sequencing analysis (Supplementary Figs. 8, 9, 10, and 11).
(§2) For expression of the FVIII and FV full-length and deletion mutant proteins in mammalian cells, the codon-optimized FVIII and FV genes were inserted into the p3XFLAG-CMV-14 Expression Vector and p3XFLAG-CMV-9 Expression Vector, respectively (Sigma-Aldrich, St. Louis, MO). For the expression of the wild-type and mutated AAT, EPO, and sFγRIIIa in mammalian cells, the corresponding genes (purchased from FASMAC Co., Ltd., Atsuki, Japan) were inserted into the p3XFLAG-CMV-9 Expression Vector (Sigma-Aldrich). […]
(§3) The secreted levels of FVIII and FV antigens in the culture medium were determined with an sandwich enzyme-linked immunosorbent assay (ELISA) method using the VisuLize FVIII Antigen Kit (Affinity Biologicals Inc., Ancaster, ON) and the Asssay Max™ Human Factor V ELISA Kit (ASSAYPRO, MO), respectively. The secreted levels of AAT and EPO antigens in the culture medium were determined with an ELASA method using the anti-AAT antibody (Agilent, Santa Clara, CA) and anti-Flag M2 antibody (Sigma-Aldrich), respectively.

HCT116 cells = assay: Intracellular accumulation, western blotting of cell lysates; conditions: anti-flag western blot, vs EPO-motif
Description: Western blots were performed according to methods in previous studies[29],[30]. At 72 h post transfection, the EPO and sFγRIII recombinant proteins were purified with anti-Flag M2 Affinity Gel (Sigma-Aldrich). The gel was washed twice with phosphate-buffered saline, and proteins were eluted with the 3× FLAG tag peptide (Sigma-Aldrich). The purified proteins were subjected to 3–10% gradient sodium dodecyl sulfate-polyacrylamide gel electrophoresis and subsequently transferred to a polyvinylidene difluoride membrane (Millipore, Billerica, MA). After blocking with Blocking One solution (Nacalai Tesque, Kyoto, Japan), the membranes were incubated with monoclonal mouse anti-Flag M2 (Sigma-Aldrich, F1804), anti-human LMAN1 (ERGIC-53) (Proteintech, Tokyo, Japan, 13364), anti-human SDNSF/MCFD2 (R&D System, Minneapolis, MN, MAB2357), and anti-β-actin (Sigma-Aldrich, A2228) antibodies, and then with horseradish peroxidase (HRP)-conjugated secondary antibody [anti-mouse IgG antibody-HRP, GE Healthcare (Piscataway, NJ) and anti-rabbit Ig antibody-HRP, Cell Signaling Technology (Danvers, MA)] in 20 mM Tris-HCl (pH 7.6) containing 150 mM NaCl and 0.05% Tween-20. The protein bands were visualized with Immobilon Western Chemiluminescent HRP substrate solution (Millipore).

ERGL KO HCT116 cells = assay: EPO secretion level (ELISA) from ERGL KO HCT116 cells
Source text: as §1, §2, §3

[1] = average, n = 3, EPO in wild type = 1

With “EPO: recombinant Flag-tagged erythropoietin without motif (Fig. 5 prints EPO for mScarlet-I-EPO)” the “EPO secretion level (Figure 4D), average” value (ΔERGIC-53 HCT116 cells; [1]) was 1.297, the “EPO secretion level (Figure 4D)” value (ΔERGIC-53 HCT116 cells; replicate 1) was 1.122 and the “EPO secretion level (Figure 4D)” value (ΔERGIC-53 HCT116 cells; replicate 2) was 1.395. For the same substance, the “EPO secretion level (Figure 4D)” value (ΔERGIC-53 HCT116 cells; replicate 3) was 1.373, the “intracellular accumulation” value (HCT116 cells) was “a higher level of accumulation in the cells” and the “EPO secretion level (Figure 4D), average” value (ERGL KO HCT116 cells; [1]) was 0.7808. The “EPO secretion level (Figure 4D)” value (ERGL KO HCT116 cells; replicate 1) was 0.6104, the “EPO secretion level (Figure 4D)” value (ERGL KO HCT116 cells; replicate 2) was 0.9026 and the “EPO secretion level (Figure 4D)” value (ERGL KO HCT116 cells; replicate 3) was 0.8293.
